The values that follow come from patent US20220213092A1, “BICYCLIC PYRAZOLE BRUTON'S TYROSINE KINASE INHIBITORS” (AbbVie Inc., priority 2020, published 2022).

Like-named read-outs stand apart in the source and are kept apart here.

One data set concerns the target T1, BMX (Homo sapiens, UniProt P51813).
T1 sequence (P51813 1-675): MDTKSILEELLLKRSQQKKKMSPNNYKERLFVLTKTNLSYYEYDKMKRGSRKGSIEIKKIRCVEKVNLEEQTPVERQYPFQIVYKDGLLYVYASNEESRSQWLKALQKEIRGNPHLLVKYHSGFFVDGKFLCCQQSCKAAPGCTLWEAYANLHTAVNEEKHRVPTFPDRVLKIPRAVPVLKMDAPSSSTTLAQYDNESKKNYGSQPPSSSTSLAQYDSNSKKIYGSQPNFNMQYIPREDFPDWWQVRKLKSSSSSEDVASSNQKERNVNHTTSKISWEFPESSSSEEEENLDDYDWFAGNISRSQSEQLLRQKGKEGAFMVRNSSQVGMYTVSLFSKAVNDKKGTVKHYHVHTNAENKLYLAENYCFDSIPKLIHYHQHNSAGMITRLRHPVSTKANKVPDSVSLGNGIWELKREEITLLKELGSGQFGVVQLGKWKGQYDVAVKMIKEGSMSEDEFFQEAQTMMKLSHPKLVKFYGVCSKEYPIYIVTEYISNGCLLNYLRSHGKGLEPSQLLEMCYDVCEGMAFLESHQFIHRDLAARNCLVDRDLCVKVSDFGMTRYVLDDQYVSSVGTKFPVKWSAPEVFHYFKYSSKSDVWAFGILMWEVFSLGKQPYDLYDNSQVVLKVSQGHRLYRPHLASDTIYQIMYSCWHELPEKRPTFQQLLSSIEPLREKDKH
Description: Other kinase MSA: BMX. In kind it is biochemical. The protocol:
Kinase activity, unless otherwise indicated, was measured in vitro using an electrophoretic mobility shift assay (MSA). The phosphorylation of a peptide substrate by BTK and other kinases was measured. The kinase reactions were assembled in a total volume of 25 μL per well in 384 well plates. The following was added to each well: compound buffer (or control); enzyme buffer; and substrate buffer, as further described below.
Enzyme and compound/inhibitor were optionally pre-incubated. To each well was added: 8 μL of 2.5×ATP and substrate in 1× Master Buffer (1× Master Buffer as described above). The plate was incubated at room temperature for 3 hours. […] OG488 was Oregon Green dye, which was conjugated to the peptide substrate. […] The kinase activity for the kinases in Table 3 were measured at 3 hours incubation time, except that in the case of MAP2K1 and MAP2K2 assay, pre-activation of ERK was done for 30 min with 6 μM of ATP, and then the detection of activated ERK in the presence of compounds was done after 60 minutes of incubation.
The terminated reactions were analyzed using a 12 channel LABCHIP® 3000 microfluidic detection instrument (available from Caliper Life Sciences, Waltham, Mass.). […] Change in the relative fluorescence intensity of the substrate and product peaks was the parameter measured, reflecting enzyme activity. […]

Data set [1] can be described thus: Chemical inhibition in human hepatocytes (intrinsic clearance with and without CYP inhibitors). It is filed as in vitro ADME. The following applies: human, human hepatocyte suspension. The protocol: (§1) The contribution of CYPs to the metabolism of Compound 6 was evaluated in human hepatocyte suspension (about 500,000 cells/mL) (hepatocytes from BioIVT, Inc.) treated with or without azamulin (CYP3A4 mechanism-based inhibitor) or 1-aminobenzotriazole (ABT)/tienilic acid (a pan-CYP inhibitor regimen) for 30 minutes. The hepatocyte suspension with inhibitors was preincubated with 2× azamulin or 1-ABT/tienilic acid in Williams' media E and then added to 2× Compound 6 in media to give a final concentrations of 2.5 μM azamulin or 0.5 mM 1-ABT/1.5 μM tienilic acid and 0.5 μM Compound 6, respectively.
(§2) Final incubation volume was 25 μL. Samples were incubated in 384-well plates at 37° C. with 5% CO2 and gentle shaking. At each time point (0, 15, 30, 60, 120, and 240 minutes), samples in the incubation plates were quenched with acetonitrile:MeOH (95:5, v:v) with carbutamide as internal standard (quench ration 3:1). The samples were centrifuged, and the supernatant was analyzed using LC-MS/MS.
(§3) Quantitation of the substrate depletion in recombinant CYPs and FMO3 phenotyping, chemical inhibition in hepatocytes, and enzyme kinetics assays were analyzed by monitoring substrate depletion using LC-MS/MS.
(§4) The intrinsic clearance of Compound 6 in rCYP and hepatocytes was determined by integrating the parent peak on the chromatograms, and the extent of substrate depletion measured by comparing parent peak area loss over time. The elimination rate constant (k, transformation of % parent remaining versus incubation time: y=a*e^−(kt). Where y is the % parent remaining, t (min) is the time point within the incubation, and a is the % parent remaining at time 0 minute. From this, intrinsic clearance in rCYP (CLint, CYP, expressed in units of μL/min/pmol CYP) and in hepatocytes (CLint, hep, expressed in units of μL/min/million cells were derived using the equations below:
(§5) Clint,hep=k*1000/Cell Concentration (million cells/mL)
(§6) The fraction of metabolism inhibited by the chemical treatment in human hepatocytes was calculated using the equation:
(§7) fm,CYP=[Clint,hep(no inhibitor)−Clint,hep(PanCYP or azamulin])/[Clint, hep(no inhibitor)]

In data set [2] the test system is human hepatocyte suspension. The description is as above. In kind it is in vitro ADME. The protocol: as §1, §2, §3, §4, §5, §6, §7

A word on the IC50: it is the concentration at which inhibition is half-maximal. At BMX, `C=CC(=O)N1CCN([C@@H]2CCNc3c2nn(-c2ccc(Oc4ccccc4)cc2)c3C(N)=O)CC1` [Example 6, (7R)-2-(4-phenoxyphenyl)-7-[4-(prop-2-enoyl)piperazin-1-yl]-4,5,6,7-tetrahydro-2H-pyrazolo[4,3-b]pyridine-3-carboxamide] showed an IC50 of 0.0152 µM. Moreover, the hepatocyte CLint at 0.5 μM stood at 8.23 µL/min/1e6 cells in data set [1] (0.5 μM Compound 6, 0.5 mM 1-ABT/1.5 μM tienilic acid, read-out: CLint, PAN CYP); 13.3 µL/min/1e6 cells in data set [1] (0.5 μM Compound 6, no inhibitor, read-out: CLint, no inhibitor); 9.15 µL/min/1e6 cells in data set [1] (with 2.5 μM azamulin (CYP3A4 mechanism-based inhibitor), 0.5 μM Compound 6, 2.5 μM azamulin (CYP3A4 inhibitor), read-out: CLint, Azamulin). Further, the “% Total CYP Contribution In Vitro” value in data set [2] (calculated from the PAN CYP inhibitor regimen of 1-ABT and tienilic acid, human hepatocyte suspensions) was 38.3%. Besides, the “CYP contribution to the hepatic metabolism” value in data set [2] (following incubation with a pan-CYP inhibitor cocktail in human hepatocytes) was “approximately 30%”. Moreover, the “% Inhibition by azamulin” value in data set [2] (fraction of clearance in human hepatocytes inhibited by azamulin) is reported as 31.4%. Moreover, the “non-CYP hepatic enzymes contribution to the remaining clearance” value in data set [2] (human hepatocytes) is “about 70%”.
